How the values were obtained:
C57Bl/6 mice = assay: Fear conditioning; type: in vivo, mouse; conditions: chronic 10 mg/kg/day IP, week 4 of testing
Excerpt: See Supplementary Methods for details. […]
Fear Conditioning: Coulbourn Instruments (Holliston, MA, USA) fear conditioning system and FreezeFrame software were used for analysis. The experiment consisted of 1 day of training, 1 day of contextual testing, and 1 day of cued testing. The training and contextual testing chambers were identical with similar context. The walls were made of aluminum. The floor was […]
a gray metal grid through which the US was delivered, and the chambers used yellow color house light and were scented with mint extract to produce a unique smell in the chambers. The chambers were cleaned with a 10% simple green solution (Sunshine Makers, Inc.) between each mouse. The cued testing chambers were circular-shaped, made of plastic, used blue color house light, and were scented with vanilla extract to create a unique context different from training and contextual testing. This chamber was cleaned with 70% ethanol between each mouse. Both chambers were mounted within specially designed sound-attenuating chambers.
Each chamber had speakers mounted on the wall and included an exhaust fan and camera. On Day 1 training, mice were placed individually into a training chamber for 200 seconds. A tone (20 seconds, 80 dB, 2 kHz) was presented to the mouse, followed by an electrical shock (intensity 0.5 mA, 2 seconds) 18 seconds after the end of the tone (Misane et al. 2005, Burman 2014, Lugo et al. 2014). This procedure was repeated two times with a 60 second interval from the end of the shock to the next tone. The mouse was removed from the chamber and returned to the home cage 60 seconds after the last shock. On Day 2, the mice were placed back into the training chamber without any tone or shock for contextual memory testing for 15 minutes. On Day 3, the mice were placed into the cued testing chamber with just tones (20 seconds, 80dB, 2 kHz) presented 3 times with 80 second intervals after 200 seconds of habituation. Overall, the mice received the tone and shock pairings only on the training day. An overhead camera was used to record mice freezing behavior. The fear conditioning test was conducted after four weeks of exposure to compounds or vehicle.
We have shown when studying the cognitive enhancement in normal, young control mice, overtraining of the animals will lead to saturation of behavioral learning, making it very difficult to display pharmacological improvements in behavioral paradigms. We therefore chose less training trials per day and less number of training days in the Morris water maze to increase the likelihood of observing drug effects. Likewise, the fear conditioning task, we chose lower shock

[1] = Pharmacokinetics in mouse serum and brain; type: in vivo; conditions: 100 mg/kg IP
Experimental: Pharmacokinetics on 2MeGlu and 2MeGln in mice
C57BL/6 mice (Jackson Laboratory cat. no. 000664) were administered 100 mg/kg IP. At the times indicated, mice were deeply anesthetized by isoflurane, blood was collected by cardiac puncture and left to clot on ice, and then animals were perfused with cold PBS until viscera […]
dissected and one half frozen at –80 °C until homogenization in ice cold PBS (pH 7.4) using a probe ultrasonic homogenizer (Branson Sonifier 450, Power: 5, Cycle: 30%, time: 10 s) on ice.
The lysate was centrifuged (2,500g for 15 min at 4 °C) and the supernatant was assayed using Pierce BCA Protein Assay Kit (23225) using BioTek Epoch plate spectrophotometer by recording absorbance at 562 nm.
Two or three 10 μL aliquots of the homogenate were transferred to a 96 well plate and extracted with 190 μL of 60% acetonitrile in water containing 10 μM GABA-d6 or 10 μM Glu-d5 and Gln-d5 as internal standards. 40 μL aliquots of the extracts were then diluted with 120 μL of acetonitrile and prepared for LC-MS/MS analysis. Brain and serum half-lives were calculated using the ‘PKNCA’ package for R. Endogenous levels of Glu, Gln and GABA were determined in the brains of mice used in the pharmacokinetics experiment. MRM transitions specific for Glu, Gln and GABA were monitored simultaneously. […]

| SMILES | Fear conditioning Day 1, learning of the tone-shock association (C57Bl/6 mice) | Fear conditioning Day 2, contextual recall vs vehicle (C57Bl/6 mice) | Fear conditioning Day 3, freezing during cued recall or tone presentation vs vehicle (C57Bl/6 mice) | Time of peak brain concentration [1] | Maximum brain concentration [1] | half-life ([1]; C57BL/6, brain, estimated) | Brain accumulation (with metabolite (S)-2MeGln) relative to (R)-2MeGlu [1] |
| --- | --- | --- | --- | --- | --- | --- | --- |
| CC(N)(CCC(N)=O)C(=O)O (racemic) [rac-2MeGln, rac-2-methylglutamine] | equivalent learning of the tone-shock association | no significant effect of treatments | no significant differences detected | 25 min | – | – | – |
| C[C@@](N)(CCC(=O)O)C(=O)O [(R)-2MeGlu, (R)-2-methylglutamic acid] | equivalent learning of the tone-shock association | no significant effect of treatments | no significant differences detected | ≤ 5 min | 30 pmol/mg protein | ~1.17 h | – |
| C[C@](N)(CCC(=O)O)C(=O)O [(S)-2MeGlu, (S)-2-methylglutamic acid] | equivalent learning of the tone-shock association | no significant effect of treatments | no significant differences detected | 25 min | 50 pmol/mg protein | – | as much as tenfold more |

Reference: publication PMC8047011, “Enantiomers of 2-methylglutamate and 2-methylglutamine selectively impact mouse brain metabolism and behavior” (Scientific Reports, 2021)
